Reference: BindingDB's records for doi:10.1074/jbc.M809633200 (United States Army Medical Research Institute of Infectious …, 2009)

Target: T1, Receptor-type tyrosine-protein phosphatase C (Homo sapiens, UniProt P08575)
T1 sequence (P08575 whole entry): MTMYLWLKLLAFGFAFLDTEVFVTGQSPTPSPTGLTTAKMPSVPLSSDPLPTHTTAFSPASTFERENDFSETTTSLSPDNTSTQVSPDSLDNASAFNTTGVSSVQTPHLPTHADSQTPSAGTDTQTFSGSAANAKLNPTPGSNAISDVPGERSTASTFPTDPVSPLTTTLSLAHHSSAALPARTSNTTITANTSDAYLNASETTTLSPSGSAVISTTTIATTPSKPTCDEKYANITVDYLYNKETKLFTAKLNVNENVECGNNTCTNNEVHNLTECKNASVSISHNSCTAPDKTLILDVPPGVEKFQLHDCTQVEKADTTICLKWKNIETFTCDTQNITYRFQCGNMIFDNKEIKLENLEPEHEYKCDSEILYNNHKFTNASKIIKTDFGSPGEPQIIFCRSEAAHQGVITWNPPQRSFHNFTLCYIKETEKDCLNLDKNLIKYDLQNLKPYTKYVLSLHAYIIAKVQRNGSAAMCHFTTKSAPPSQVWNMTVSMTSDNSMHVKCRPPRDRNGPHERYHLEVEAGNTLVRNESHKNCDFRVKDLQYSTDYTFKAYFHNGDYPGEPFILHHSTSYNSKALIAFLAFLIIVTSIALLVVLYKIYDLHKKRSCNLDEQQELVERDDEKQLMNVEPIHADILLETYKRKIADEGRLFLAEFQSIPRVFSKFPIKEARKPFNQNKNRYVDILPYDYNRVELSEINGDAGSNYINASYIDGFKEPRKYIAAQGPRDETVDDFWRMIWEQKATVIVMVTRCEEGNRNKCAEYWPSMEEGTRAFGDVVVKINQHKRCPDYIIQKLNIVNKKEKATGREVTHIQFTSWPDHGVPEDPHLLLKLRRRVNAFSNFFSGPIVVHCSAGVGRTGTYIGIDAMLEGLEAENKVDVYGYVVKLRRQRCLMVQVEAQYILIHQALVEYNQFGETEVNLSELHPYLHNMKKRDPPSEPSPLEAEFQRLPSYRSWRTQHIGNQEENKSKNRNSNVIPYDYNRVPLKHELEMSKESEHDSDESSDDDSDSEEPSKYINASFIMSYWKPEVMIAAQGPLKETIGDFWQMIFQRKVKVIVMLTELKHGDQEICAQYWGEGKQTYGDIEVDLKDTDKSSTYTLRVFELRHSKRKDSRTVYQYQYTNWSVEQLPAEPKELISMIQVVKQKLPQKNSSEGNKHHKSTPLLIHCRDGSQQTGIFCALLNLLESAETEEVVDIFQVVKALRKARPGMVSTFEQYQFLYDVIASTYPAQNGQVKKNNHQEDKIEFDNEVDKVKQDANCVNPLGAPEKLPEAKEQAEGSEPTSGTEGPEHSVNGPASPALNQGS
Assay: Phosphatase Activity Assay
Description: Protein phosphatases were purchased from Upstate Biotechnology (Lake Placid, NY).

Compound | IC50
O=C1C(=O)c2ccccc2-c2ccccc21 | 300 nM
CC(C)(C)C(=O)Nc1ccc2c(c1)C(=O)C(=O)c1ccccc1-2 [N-(9,10-Dioxo-9,10-dihydro-phenanthrene-2-yl)-2,2-dimethyl-propionamide] | 400 nM
O=C1C(=O)c2cccc([N+](=O)[O-])c2-c2ccccc21 [4-Nitro-phenanthrene-9,10 dione] | 6000 nM
